Laboratory results taken from ChEMBL document CHEMBL1152560, “Substituted 2-arylbenzothiazoles as kinase inhibitors: hit-to-lead optimization” (Bioorg Med Chem, 2009).

How the values were obtained:
[1] = biological target: Rho-associated protein kinase 2 (Homo sapiens) (UniProt O75116); assay: Residual activity of ROCK2 at 0.1 uM by microplate scintillation counting
[2] = biological target: T1, Discoidin domain-containing receptor 2 (Homo sapiens) (UniProt Q16832); assay: Residual activity of DDR2 at 10 uM by microplate scintillation counting
T1 sequence (whole entry): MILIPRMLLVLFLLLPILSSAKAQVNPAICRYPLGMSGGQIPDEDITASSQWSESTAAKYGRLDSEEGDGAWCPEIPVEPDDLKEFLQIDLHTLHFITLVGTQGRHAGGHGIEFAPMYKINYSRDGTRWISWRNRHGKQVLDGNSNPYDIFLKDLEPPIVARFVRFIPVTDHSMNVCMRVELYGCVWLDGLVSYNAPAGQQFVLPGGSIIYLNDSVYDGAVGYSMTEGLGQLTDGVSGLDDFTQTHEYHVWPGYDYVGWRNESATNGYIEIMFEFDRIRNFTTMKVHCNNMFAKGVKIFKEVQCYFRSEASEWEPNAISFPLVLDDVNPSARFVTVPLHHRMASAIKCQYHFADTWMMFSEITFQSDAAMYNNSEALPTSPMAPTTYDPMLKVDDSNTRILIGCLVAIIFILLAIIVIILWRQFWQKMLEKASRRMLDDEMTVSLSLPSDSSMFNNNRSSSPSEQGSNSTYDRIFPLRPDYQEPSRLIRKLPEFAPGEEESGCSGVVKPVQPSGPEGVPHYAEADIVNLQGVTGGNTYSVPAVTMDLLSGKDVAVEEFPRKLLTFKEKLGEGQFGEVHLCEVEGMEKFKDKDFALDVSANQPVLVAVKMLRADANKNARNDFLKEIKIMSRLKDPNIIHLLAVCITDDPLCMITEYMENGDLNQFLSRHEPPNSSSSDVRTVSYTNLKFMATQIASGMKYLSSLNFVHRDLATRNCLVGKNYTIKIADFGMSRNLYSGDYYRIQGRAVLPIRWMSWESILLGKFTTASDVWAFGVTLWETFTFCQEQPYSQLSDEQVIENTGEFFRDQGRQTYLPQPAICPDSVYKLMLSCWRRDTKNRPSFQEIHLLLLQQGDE

[3] = biological target: Serine/threonine-protein kinase PLK2 (Homo sapiens) (UniProt Q9NYY3); assay: Residual activity of SNK at 10 uM by microplate scintillation counting
[4] = biological target: G protein-coupled receptor kinase 5 (Homo sapiens) (UniProt P34947); assay: Residual activity of GRK5 at 1 uM by microplate scintillation counting
[5] = biological target: Ephrin type-A receptor 7 (Homo sapiens) (UniProt Q15375); assay: Residual activity of EPHA7 at 1 uM by microplate scintillation counting
[6] = biological target: T2, Inhibitor of nuclear factor kappa-B kinase subunit beta (Homo sapiens) (UniProt O14920); assay: Residual activity of IKK-beta at 1 uM by microplate scintillation counting
T2 sequence (whole entry): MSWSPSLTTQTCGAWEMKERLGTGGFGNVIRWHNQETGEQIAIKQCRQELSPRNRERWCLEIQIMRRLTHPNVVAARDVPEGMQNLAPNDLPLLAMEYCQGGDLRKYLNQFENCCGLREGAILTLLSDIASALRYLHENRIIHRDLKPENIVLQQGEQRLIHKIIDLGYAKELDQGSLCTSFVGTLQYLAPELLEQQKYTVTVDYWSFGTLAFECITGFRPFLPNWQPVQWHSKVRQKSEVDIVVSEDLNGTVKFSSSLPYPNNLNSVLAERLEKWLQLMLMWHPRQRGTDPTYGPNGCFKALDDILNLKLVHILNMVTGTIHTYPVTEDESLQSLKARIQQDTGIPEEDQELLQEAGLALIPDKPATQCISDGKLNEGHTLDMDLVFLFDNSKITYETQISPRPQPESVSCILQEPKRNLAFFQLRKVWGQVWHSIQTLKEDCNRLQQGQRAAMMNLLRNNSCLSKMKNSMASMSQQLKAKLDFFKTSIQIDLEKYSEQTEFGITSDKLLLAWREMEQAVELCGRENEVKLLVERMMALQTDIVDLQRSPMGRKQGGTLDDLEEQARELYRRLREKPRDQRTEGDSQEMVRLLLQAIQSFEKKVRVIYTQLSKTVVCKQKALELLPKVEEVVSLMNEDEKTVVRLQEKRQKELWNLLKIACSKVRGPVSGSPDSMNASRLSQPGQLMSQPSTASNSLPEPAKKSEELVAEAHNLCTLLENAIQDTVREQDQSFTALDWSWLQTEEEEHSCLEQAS

[7] = biological target: Cyclin-dependent kinase 5/CDK5 activator 1 (Homo sapiens) (UniProt Q00535+Q15078); assay: Residual activity of CDK5/p35NCK at 1 uM by microplate scintillation counting; type: protein-complex assay
[8] = tested on: Epidermal growth factor receptor (Homo sapiens), P00533 [T790M]; assay: Residual activity of EGFR T790M mutant at 1 uM by microplate scintillation counting
[9] = biological target: Interleukin-1 receptor-associated kinase 1 (Homo sapiens) (UniProt P51617); assay: Residual activity of IRAKI at 0.1 uM by microplate scintillation counting
[10] = biological target: Tyrosine-protein kinase Fes/Fps (Homo sapiens) (UniProt P07332); assay: Residual activity of FES at 1 uM by microplate scintillation counting
[11] = biological target: Interferon-induced, double-stranded RNA-activated protein kinase (Homo sapiens) (UniProt P19525); assay: Residual activity of EIF2AK2 at 0.1 uM by microplate scintillation counting
[12] = biological target: Ribosomal protein S6 kinase alpha-5 (Homo sapiens) (UniProt O75582); assay: Residual activity of RPS6KA5 at 0.1 uM by microplate scintillation counting
[13] = biological target: Tyrosine-protein kinase ABL2 (Homo sapiens) (UniProt P42684); assay: Residual activity of ABL2 at 1 uM by microplate scintillation counting
[14] = biological target: Tyrosine-protein kinase JAK2 (Homo sapiens) (UniProt O60674); assay: Residual activity of JAK2 at 0.1 uM by microplate scintillation counting
Tyrosine-protein kinase JAK2 (Homo sapiens), sequence (O60674 whole entry): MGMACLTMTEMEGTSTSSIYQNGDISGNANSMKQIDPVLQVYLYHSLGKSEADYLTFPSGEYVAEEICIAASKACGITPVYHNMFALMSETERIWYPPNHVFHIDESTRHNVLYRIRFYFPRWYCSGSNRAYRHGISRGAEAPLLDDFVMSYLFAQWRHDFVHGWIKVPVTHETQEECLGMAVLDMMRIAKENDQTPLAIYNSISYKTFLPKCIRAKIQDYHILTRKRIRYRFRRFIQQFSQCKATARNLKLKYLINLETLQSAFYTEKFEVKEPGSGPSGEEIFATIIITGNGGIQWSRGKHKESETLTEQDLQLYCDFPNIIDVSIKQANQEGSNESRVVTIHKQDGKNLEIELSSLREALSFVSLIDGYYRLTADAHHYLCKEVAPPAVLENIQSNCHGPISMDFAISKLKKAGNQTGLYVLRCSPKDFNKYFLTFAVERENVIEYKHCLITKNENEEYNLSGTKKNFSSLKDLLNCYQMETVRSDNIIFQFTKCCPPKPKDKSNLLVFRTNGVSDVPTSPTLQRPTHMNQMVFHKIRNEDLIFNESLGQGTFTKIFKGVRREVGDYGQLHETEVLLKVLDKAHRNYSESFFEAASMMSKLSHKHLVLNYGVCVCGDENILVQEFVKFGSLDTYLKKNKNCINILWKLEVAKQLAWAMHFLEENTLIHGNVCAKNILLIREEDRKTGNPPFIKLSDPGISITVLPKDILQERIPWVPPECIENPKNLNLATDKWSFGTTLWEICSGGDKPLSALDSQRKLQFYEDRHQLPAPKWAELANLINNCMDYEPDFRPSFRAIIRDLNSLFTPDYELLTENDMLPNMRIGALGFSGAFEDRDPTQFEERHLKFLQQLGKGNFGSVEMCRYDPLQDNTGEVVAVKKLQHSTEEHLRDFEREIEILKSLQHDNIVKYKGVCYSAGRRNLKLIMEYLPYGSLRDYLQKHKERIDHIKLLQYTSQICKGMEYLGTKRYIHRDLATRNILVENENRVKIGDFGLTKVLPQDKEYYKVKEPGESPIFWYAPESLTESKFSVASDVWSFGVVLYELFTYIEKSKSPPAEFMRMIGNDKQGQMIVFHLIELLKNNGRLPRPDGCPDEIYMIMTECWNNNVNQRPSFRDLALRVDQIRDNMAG

Ribosomal protein S6 kinase alpha-5 (Homo sapiens), sequence (O75582 whole entry, looked up): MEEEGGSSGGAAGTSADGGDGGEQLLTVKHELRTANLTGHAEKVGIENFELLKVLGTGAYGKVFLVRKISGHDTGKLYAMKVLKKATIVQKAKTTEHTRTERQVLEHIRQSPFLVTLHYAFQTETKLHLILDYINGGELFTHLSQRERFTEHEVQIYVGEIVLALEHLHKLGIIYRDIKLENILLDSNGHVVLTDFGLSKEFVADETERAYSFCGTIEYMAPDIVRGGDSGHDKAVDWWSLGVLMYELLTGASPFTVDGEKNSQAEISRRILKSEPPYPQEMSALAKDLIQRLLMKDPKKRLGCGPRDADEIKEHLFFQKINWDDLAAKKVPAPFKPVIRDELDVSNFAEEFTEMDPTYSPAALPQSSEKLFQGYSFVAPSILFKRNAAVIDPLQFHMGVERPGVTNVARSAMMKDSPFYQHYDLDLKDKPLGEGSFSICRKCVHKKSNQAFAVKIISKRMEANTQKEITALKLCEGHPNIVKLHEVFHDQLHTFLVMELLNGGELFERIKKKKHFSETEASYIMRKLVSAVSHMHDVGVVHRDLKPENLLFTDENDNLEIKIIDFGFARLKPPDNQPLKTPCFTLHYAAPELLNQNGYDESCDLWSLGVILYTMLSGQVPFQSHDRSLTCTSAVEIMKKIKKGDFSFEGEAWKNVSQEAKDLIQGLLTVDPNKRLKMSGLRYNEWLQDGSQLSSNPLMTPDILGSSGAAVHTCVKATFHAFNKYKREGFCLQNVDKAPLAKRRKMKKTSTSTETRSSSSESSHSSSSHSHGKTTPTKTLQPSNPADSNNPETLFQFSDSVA
Tyrosine-protein kinase ABL2 (Homo sapiens), sequence (P42684 whole entry): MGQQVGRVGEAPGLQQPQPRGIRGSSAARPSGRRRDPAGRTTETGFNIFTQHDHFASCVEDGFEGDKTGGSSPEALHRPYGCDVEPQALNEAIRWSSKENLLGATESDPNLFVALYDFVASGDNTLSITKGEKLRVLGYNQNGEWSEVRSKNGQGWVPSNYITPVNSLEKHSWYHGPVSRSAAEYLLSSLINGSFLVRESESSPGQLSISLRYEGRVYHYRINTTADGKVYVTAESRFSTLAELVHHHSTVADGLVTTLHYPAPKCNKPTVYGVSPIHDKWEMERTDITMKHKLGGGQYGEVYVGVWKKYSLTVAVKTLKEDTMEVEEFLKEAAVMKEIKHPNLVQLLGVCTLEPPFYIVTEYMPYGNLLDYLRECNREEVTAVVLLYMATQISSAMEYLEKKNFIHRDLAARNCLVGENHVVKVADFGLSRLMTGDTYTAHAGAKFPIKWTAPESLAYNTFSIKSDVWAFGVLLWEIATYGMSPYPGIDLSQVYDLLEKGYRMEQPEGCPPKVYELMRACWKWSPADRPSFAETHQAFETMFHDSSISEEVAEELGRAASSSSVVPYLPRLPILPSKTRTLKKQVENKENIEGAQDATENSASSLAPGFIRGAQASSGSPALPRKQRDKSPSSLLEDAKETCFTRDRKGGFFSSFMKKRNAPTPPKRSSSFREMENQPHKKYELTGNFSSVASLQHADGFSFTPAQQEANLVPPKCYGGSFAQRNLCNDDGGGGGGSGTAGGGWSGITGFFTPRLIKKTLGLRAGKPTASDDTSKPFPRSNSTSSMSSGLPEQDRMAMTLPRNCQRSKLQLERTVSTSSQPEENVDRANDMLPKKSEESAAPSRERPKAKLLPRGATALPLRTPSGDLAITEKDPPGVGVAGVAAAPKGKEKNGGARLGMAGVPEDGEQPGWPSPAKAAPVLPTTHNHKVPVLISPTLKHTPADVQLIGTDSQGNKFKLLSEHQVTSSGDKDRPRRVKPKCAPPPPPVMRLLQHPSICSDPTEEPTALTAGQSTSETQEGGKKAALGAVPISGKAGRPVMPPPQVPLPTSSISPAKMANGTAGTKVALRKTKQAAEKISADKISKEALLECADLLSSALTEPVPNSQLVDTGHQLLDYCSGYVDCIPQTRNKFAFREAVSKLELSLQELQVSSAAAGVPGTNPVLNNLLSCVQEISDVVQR
G protein-coupled receptor kinase 5 (Homo sapiens), sequence (P34947 whole entry, looked up): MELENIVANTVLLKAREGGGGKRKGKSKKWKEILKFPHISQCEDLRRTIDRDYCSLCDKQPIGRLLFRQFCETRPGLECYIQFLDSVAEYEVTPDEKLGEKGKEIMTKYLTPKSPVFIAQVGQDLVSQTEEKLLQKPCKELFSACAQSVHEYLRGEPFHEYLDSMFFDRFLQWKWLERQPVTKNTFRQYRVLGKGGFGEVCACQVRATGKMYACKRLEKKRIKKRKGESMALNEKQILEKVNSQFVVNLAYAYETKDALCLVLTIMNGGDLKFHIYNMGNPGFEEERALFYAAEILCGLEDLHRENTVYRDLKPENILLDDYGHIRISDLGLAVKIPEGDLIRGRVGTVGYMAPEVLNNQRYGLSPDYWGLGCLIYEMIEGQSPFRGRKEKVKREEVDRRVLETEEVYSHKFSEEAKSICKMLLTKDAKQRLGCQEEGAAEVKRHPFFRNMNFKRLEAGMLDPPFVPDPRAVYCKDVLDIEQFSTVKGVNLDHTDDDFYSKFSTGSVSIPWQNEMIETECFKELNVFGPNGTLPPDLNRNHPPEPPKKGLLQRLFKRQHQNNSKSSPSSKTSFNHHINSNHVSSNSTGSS
Rho-associated protein kinase 2 (Homo sapiens), sequence (O75116 whole entry, looked up, the tested form may be a part): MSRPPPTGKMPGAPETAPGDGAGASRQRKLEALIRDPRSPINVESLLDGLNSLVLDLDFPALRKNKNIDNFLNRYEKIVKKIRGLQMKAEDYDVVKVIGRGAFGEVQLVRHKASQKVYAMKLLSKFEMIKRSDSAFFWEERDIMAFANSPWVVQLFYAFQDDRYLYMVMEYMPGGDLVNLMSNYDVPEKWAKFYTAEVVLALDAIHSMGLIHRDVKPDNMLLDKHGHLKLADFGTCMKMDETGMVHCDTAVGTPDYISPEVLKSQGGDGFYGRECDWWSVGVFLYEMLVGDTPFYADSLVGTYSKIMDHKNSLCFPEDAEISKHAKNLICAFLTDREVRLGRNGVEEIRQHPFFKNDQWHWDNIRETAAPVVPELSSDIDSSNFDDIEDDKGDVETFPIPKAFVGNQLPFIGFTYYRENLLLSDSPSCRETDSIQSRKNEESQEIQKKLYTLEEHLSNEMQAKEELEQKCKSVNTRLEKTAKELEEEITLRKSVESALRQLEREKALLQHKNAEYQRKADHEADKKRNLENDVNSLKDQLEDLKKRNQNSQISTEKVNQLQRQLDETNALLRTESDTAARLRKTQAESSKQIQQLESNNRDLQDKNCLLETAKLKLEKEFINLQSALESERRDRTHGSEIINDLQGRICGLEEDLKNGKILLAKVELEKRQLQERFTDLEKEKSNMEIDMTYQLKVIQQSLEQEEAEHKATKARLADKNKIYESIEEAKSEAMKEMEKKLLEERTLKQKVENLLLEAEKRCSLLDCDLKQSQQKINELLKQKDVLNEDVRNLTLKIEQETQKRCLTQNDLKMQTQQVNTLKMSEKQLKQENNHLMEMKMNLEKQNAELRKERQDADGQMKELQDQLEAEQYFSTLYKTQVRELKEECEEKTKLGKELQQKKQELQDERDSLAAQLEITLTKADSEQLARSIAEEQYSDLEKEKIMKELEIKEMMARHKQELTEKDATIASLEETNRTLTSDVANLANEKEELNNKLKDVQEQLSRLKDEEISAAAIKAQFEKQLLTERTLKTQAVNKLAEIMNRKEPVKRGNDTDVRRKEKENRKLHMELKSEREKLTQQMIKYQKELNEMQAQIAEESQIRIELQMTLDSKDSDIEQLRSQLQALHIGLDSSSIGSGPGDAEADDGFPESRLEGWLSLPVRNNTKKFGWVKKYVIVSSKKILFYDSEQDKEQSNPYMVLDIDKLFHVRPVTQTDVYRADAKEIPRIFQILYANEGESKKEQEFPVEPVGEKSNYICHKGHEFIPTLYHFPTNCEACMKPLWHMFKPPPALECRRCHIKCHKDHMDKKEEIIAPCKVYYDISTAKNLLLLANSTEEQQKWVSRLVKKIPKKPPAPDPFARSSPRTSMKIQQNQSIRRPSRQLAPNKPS

| residual activity [1] [%] | residual activity [2] [%] | residual activity [3] [%] | residual activity [4] [%] | residual activity [5] [%] | residual activity [6] [%] | residual activity [7] [%] | residual activity [8] [%] | residual activity [9] [%] | residual activity [10] [%] | residual activity [11] [%] | residual activity [12] [%] | residual activity [13] [%] | residual activity [14] [%] | SMILES |
| --- | --- | --- | --- | --- | --- | --- | --- | --- | --- | --- | --- | --- | --- | --- |
| 119 | 42 | 120 | 89 | 114 | 98 | 97 | 85 | 61 | 123 | 82 | 96 | 98 | 92 | COc1cc2c(Oc3ccc(-c4nc5ccccc5s4)cc3)ncnc2cc1OCCCN1CCCC1 |
| 82 | 30 | 99 | 90 | 94 | 88 | 86 | 88 | 84 | 112 | 95 | 86 | 87 | 102 | COc1cc2c(Oc3ccc(-c4nc5ccccc5s4)cc3F)ncnc2cc1OCCCN1CCN(C)CC1 |
| 98 | 25 | 108 | 87 | 102 | 86 | 85 | 88 | 77 | 105 | 70 | 89 | 99 | 90 | COc1cc2c(Oc3ccc(-c4nc5ccccc5s4)cc3)ncnc2cc1OCCCN1CCN(C)CC1 |
